Reference: ChEMBL document CHEMBL4418259, “Flavan-3-ol containing foodstuffs” (2012)

Target: T1, Taste receptor type 2 member 39 (Homo sapiens) (UniProt P59534)
T1 sequence (whole entry): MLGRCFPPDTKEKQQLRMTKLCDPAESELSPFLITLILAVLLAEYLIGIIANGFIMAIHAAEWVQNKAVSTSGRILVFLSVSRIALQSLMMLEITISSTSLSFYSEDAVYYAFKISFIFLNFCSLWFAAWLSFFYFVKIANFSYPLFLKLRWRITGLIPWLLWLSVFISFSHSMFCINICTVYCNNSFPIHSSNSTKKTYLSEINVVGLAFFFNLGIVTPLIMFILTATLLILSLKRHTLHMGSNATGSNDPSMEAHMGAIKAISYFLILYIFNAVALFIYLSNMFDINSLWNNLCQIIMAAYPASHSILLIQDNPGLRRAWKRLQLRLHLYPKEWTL
Assay: Inhibition of human TAS2R39 expressed in HEK293 cells coexpressing G-protein at 10 mM assessed as reduction in epicatechin gallate-induced intracellular calcium release by Fluo-4-AM dye based fluorescence assay relative to control
Assay type: functional, cell-based

Row | Structure (SMILES) | inhibition
1 | O=C(O)c1cc(O)c(O)c(O)c1 | 25%
2 | O=C(O)c1ccc(O)c(O)c1 | 15%
3 | COc1cc(CC(=O)O)cc(OC)c1OC | 25%
4 | O=C(O)c1ccc(O)cc1 | 25%
5 | COc1ccc(/C=C/C(=O)O)cc1 | 30%
6 | COc1ccc(C(=O)O)cc1 | 15%
7 | COc1ccccc1C(=O)O | 10%
8 | O=C(O)/C=C/c1ccccc1 | 40%
9 | COc1ccccc1/C=C/C(=O)O | 0%
10 | O=C(O)c1ccccc1 | 20%
11 | COc1cc(C(=O)O)cc(OC)c1OC | 20%
12 | COc1cc(/C=C/C(=O)O)cc(OC)c1 | 20%
13 | O=C(O)CCc1ccccc1 | 15%
14 | COc1cc(CCC(=O)O)ccc1O | 35%
15 | COc1cc(CCC(=O)O)cc(OC)c1OC | 35%
16 | O=C(O)Cc1ccc(O)c(O)c1 | 15%
17 | N[C@@H](Cc1ccccc1)C(=O)O | 0%
18 | COc1cc(/C=C/C(=O)O)cc(OC)c1O | 65%

Row | Structure (SMILES) | inhibition
19 | O=C(O)/C=C/c1ccc(O)c(O)c1 | 30%
20 | O=C(O)CCc1ccc(O)c(O)c1 | 30%
21 | O=C(O)Cc1ccc(O)cc1 | 20%
22 | O=C(O)CCc1ccc(O)cc1 | 25%
23 | COc1cc(/C=C/C(=O)O)cc(OC)c1OC | 70%
24 | COc1cccc(C(=O)O)c1O | 25%
25 | COc1ccc(CC(=O)O)cc1 | 15%
26 | COc1ccc(C(=O)O)cc1OC | 10%
27 | COc1ccc(CCC(=O)O)cc1OC | 35%
28 | COc1cccc(/C=C/C(=O)O)c1 | 0%
29 | O=C(O)CCCc1ccccc1 | 40%
30 | COc1ccc(CCC(=O)O)cc1 | 40%
31 | COc1cccc(C(=O)O)c1 | 5%
32 | COc1cc(/C=C/C(=O)O)ccc1O | 65%
33 | O=C(O)/C=C/c1ccc(O)cc1 | 40%
34 | COc1ccc(/C=C/C(=O)O)c(OC)c1 | 40%
35 | O=C(O)Cc1ccccc1 | 5%
